Measured values published in patent US20100062131A1, “FLAVAN-3-OL CONTAINING FOODSTUFFS” (CONOPCO, INC., D/B/A UNILEVER, priority 2008, published 2010).

Target: T1, human bitter receptor TAS2R39 (Homo sapiens, UniProt P59534)
T1 construct: expressed in transfected cells; host or cells: HEK293 (tetracycline/doxycycline-inducible expression; blasticidin, geneticin and hygromycin selection)
T1 sequence (P59534 1-338): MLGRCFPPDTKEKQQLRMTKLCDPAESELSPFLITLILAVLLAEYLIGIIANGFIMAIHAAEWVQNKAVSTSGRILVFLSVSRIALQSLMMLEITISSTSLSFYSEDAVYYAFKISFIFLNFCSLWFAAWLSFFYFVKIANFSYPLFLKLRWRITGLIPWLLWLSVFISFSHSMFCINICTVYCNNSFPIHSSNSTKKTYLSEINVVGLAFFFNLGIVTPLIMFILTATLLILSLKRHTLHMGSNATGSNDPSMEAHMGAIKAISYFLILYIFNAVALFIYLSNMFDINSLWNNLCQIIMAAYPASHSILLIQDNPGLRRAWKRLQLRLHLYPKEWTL
Experiment: Inhibition of ECG stimulation of TAS2R39, intracellular calcium (Fluo4-AM fluorescence) assay
Assay type: cell-based
Conditions: for % inhibition of TAS2R39: HEK293 cells expressing TAS2R39, test solution 0.5 mM ECG and 10 mM test compound in Tyrodes buffer, percentage reduction of ΔF vs ECG alone; for effectiveness as inhibitor of TAS2R39 compared with gallic acid: comparison of % inhibition in Table 1 with gallic acid
Excerpt: Activation of the bitter receptor TAS2R39 causes the release of calcium from the endoplasmic reticulum of those cells containing the receptor. Therefore, changes in calcium levels within cells expressing TAS2R39 serves as a proxy marker for the activity of the receptor. An assay was used to assess the stimulation of TAS2R39 by the flavan-3-ol epicatechin gallate (ECG) and to assess the inhibition of this stimulation of TAS2R39 through the use of various compounds as follows:
HEK293 cells expressing the human bitter receptor TAS2R39 and a G-protein that allows coupling to a calcium readout system were maintained in Dulbecco's Modified Eagle's Medium (DMEM) containing DMEM and 10% tetracycline-free fetal bovine serum (Cambrex) supplemented with blasticidin (5 μg/ml) geneticin (400 μg/ml) and hygromycin (100 μg/ml). Cells were grown and maintained at 37° C./5% CO2.
Cells were cultured in a 75 cm^2 flask, harvested by trypsinisation and resuspended in DMEM medium. 100 μl of cells per well were added to a poly-L-lysine coated μClear 96-well plate, and incubated overnight. Expression of the TAS2R39 gene was then induced by the addition of 100 μl DMEM medium containing 0.5 μg/ml doxycyclin. After another 24-30 hrs the medium was removed and the cells were loaded for 1 hour with 50 μl Tyrodes buffer (140 mM NaCl, 5 mM KCl, 10 mM glucose, 1 mM CaCl2.2H2O, 1 mM MgCl2.6H2O, 20 mM HEPES pH 7.4 (Sigma P8761)) containing 2.5 μM of the fluorescent marker of calcium, Fluo4-AM, followed by a 1-hr incubation at 37° C. The cells were then washed with Tyrodes buffer and finally taken up in 100 μl, Tyrodes buffer.
Test solutions containing 0.5 mM ECG and 10 mM of the test compounds, dissolved in Tyrodes buffer, were prepared and 100 μl of each test solution was added to the wells of the 96-well plate containing the cells. A comparative solution containing only 0.5 mM ECG dissolved in Tyrodes buffer was also prepared and 100 μl was added to a well of the 96-well plate containing the cells.
Intracellular calcium levels were monitored using a Flexstation II 384. The 96-well plate was loaded onto the Flexstation II 384 and fluorescence measurements were carried out at 37° C. at an excitation wavelength of 485 nm and an emission wavelength of 520 nm. Activity of TA52R39 was measured as the change in fluorescence (ΔF) which was calculated by subtracting the […] measured before addition of the test or comparative solution.
Inhibition of TAS2R39 activity was measured as the percentage reduction of ΔF in the presence of ECG alone, compared to ΔF in the presence of ECG plus a test compound. 3,4,5-trihydroxybenzoic acid (gallic acid) was included in the selection of the test compounds.

Row | Molecule | % inhibition of TAS2R39 | effectiveness as inhibitor of TAS2R39 compared with gallic acid
1 | COc1ccc(/C=C/C(=O)O)c(OC)c1 [2,4-dimethoxycinnamic acid] | 40% | more effective inhibitors of TAS2R39 than gallic acid
2 | COc1cccc(C(=O)O)c1O [2-hydroxy-3-methoxybenzoic acid, reference compound] | 25% | 
3 | COc1ccccc1C(=O)O [2-methoxybenzoic acid, reference compound] | 10% | 
4 | COc1ccccc1/C=C/C(=O)O [2-methoxycinnamic acid, reference compound] | 0% | 
5 | O=C(O)c1cc(O)c(O)c(O)c1 [3,4,5-trihydroxybenzoic acid, reference compound] | 25% | 
6 | COc1cc(C(=O)O)cc(OC)c1OC [3,4,5-trimethoxybenzoic acid, reference compound] | 20% | 
7 | COc1cc(/C=C/C(=O)O)cc(OC)c1OC [3,4,5-trimethoxycinnamic acid, 3,4,5-trimethoxycinnamic acid] | 70% | more effective inhibitors of TAS2R39 than gallic acid
8 | COc1cc(CC(=O)O)cc(OC)c1OC [3,4,5-trimethoxyphenylacetic acid, reference compound] | 25% | 
9 | O=C(O)c1ccc(O)c(O)c1 [3,4-dihydroxybenzoic acid, reference compound] | 15% | 
10 | O=C(O)/C=C/c1ccc(O)c(O)c1 [3,4-dihydroxycinnamic acid] | 30% | more effective inhibitors of TAS2R39 than gallic acid
11 | O=C(O)Cc1ccc(O)c(O)c1 [3,4-dihydroxyphenylacetic acid, reference compound] | 15% | 
12 | COc1ccc(C(=O)O)cc1OC [3,4-dimethoxybenzoic acid, reference compound] | 10% | 
13 | COc1ccc(/C=C/C(=O)O)cc1OC [3,4-dimethoxycinnamic acid] |  | more effective inhibitors of TAS2R39 than gallic acid
14 | COc1cc(/C=C/C(=O)O)cc(OC)c1 [3,5-dimethoxycinnamic acid, reference compound] | 20% | 
15 | COc1cc(CCC(=O)O)cc(OC)c1OC [3-(3,4,5-trimethoxyphenyl)propanoic acid] | 35% | more effective inhibitors of TAS2R39 than gallic acid
16 | O=C(O)CCc1ccc(O)c(O)c1 [3-(3,4-dihydroxyphenyl) propanoic acid, 3-(3,4-dihydroxyphenyl)propanoic acid] | 30% | more effective inhibitors of TAS2R39 than gallic acid
17 | COc1ccc(CCC(=O)O)cc1OC [3-(3,4-dimethoxyphenyl) propanoic acid, 3-(3,4-dimethoxyphenyl)propanoic acid] | 35% | more effective inhibitors of TAS2R39 than gallic acid
18 | COc1cc(CCC(=O)O)ccc1O [3-(3-methoxy-4-hydroxyphenyl)propanoic acid] | 35% | more effective inhibitors of TAS2R39 than gallic acid

Row | Molecule | % inhibition of TAS2R39 | effectiveness as inhibitor of TAS2R39 compared with gallic acid
19 | O=C(O)CCc1ccc(O)cc1 [3-(4-hydroxyphenyl) propanoic acid, reference compound] | 25% | 
20 | COc1ccc(CCC(=O)O)cc1 [3-(4-methoxyphenyl) propanoic acid, 3-(4-methoxyphenyl)propanoic acid] | 40% | more effective inhibitors of TAS2R39 than gallic acid
21 | COc1cc(/C=C/C(=O)O)ccc1O [3-methoxy-4-hydroxycinnamic acid, 3-methoxy-4-hydroxycinnamic acid] | 65% | more effective inhibitors of TAS2R39 than gallic acid
22 | COc1cccc(C(=O)O)c1 [3-methoxybenzoic add, reference compound] | 5% | 
23 | COc1cccc(/C=C/C(=O)O)c1 [3-methoxycinnamic acid, reference compound] | 0% | 
24 | O=C(O)/C=C/c1ccccc1 [3-phenyl propenoic acid (Cinnamic acid), 3-phenyl propenoic acid] | 40% | more effective inhibitors of TAS2R39 than gallic acid
25 | O=C(O)CCc1ccccc1 [3-phenylpropanoic acid, reference compound] | 15% | 
26 | COc1cc(/C=C/C(=O)O)cc(OC)c1O [4-hydroxy-3,5-dimethoxycinnamic acid, 4-hydroxy-3,5-dimethoxycinnamic acid] | 65% | more effective inhibitors of TAS2R39 than gallic acid
27 | O=C(O)c1ccc(O)cc1 [4-hydroxybenzoic acid, reference compound] | 25% | 
28 | O=C(O)/C=C/c1ccc(O)cc1 [4-hydroxycinnamic acid] | 40% | more effective inhibitors of TAS2R39 than gallic acid
29 | O=C(O)Cc1ccc(O)cc1 [4-hydroxyphenylacetic acid, reference compound] | 20% | 
30 | COc1ccc(C(=O)O)cc1 [4-methoxybenzoic acid, reference compound] | 15% | 
31 | COc1ccc(/C=C/C(=O)O)cc1 [4-methoxycinnamic acid] | 30% | more effective inhibitors of TAS2R39 than gallic acid
32 | COc1ccc(CC(=O)O)cc1 [4-methoxyphenylacetic acid, reference compound] | 15% | 
33 | O=C(O)CCCc1ccccc1 [4-phenylbutanoic acid] | 40% | more effective inhibitors of TAS2R39 than gallic acid
34 | O=C(O)Cc1ccccc1 [Phenylacetic acid, reference compound] | 5% | 
35 | N[C@@H](Cc1ccccc1)C(=O)O [Phenylalamine, reference compound] | 0% | 
36 | Benzoic acid [reference compound] | 20% | 
